From patent US9856293B2, “Methods for inducing nestin expression of astrocytes by nestin-inducing synthetic peptides derived from the BC-box of the SOCS6 protein” (TOAGOSEI CO. LTD., priority 2013, dated 2018)
Ends that are not written are not given here.

Columns and labels:
Format in all cases: cell-based
[1] = test system: astrocytes derived from rat brain cerebral cortex (R-CxAs-520); test: Nestin expression inducing activity, nestin gene expression by qRT-PCR, astrocytes derived from the cerebral cortex; settings: corrected with Actin β, peptide 10 μM, 2 days, FIG. 3
Experimental: (§1) Among the synthetic peptides obtained in Example 1, sample 1 (i.e. the nestin-inducing synthetic peptide of the present invention) was evaluated for nestin expression inducing activity by quantifying the expression level of the nestin gene. Cells used for the test were cultured cells of astrocytes derived from rat brain cerebral cortex (R-CxAs-520: available from Lonza). The evaluation test is detailed as follows.
The astrocytes derived from rat cerebral cortex were inoculated into a 6-well cell culture plate at a density of 1.0×10^5 cells/well. The cells were incubated in the AG medium overnight in a CO2 incubator at 37° C. and 5% CO2.
After the overnight incubation, the medium was replaced with an AG medium containing the peptide of sample 1 at the amount of 10 μM, and the incubation was continued under the same condition for 2 more days. A comparative example was carried out without addition of the peptide.
After the incubation was completed, total RNA was extracted from cultured cells from each experimental sample in the same manner as in Example 2. […]
The expression level of the nestin gene in each experimental sample was corrected with the expression level of Actin β in each experimental sample. The expression level of each gene is expressed as a value relative to the expression level of the gene in the sample without addition of the peptide being regarded as 1.

[2] = test system: astrocytes derived from rat cerebral cortex (R-CxAs-520); test: Nestin expression inducing activity, western blot analysis of nestin and GFAP, astrocytes derived from the cerebral cortex; settings: peptide 5 μM, 2 days; for expression of GFAP compared to the culture without addition of the peptide: anti-GFAP antibody; for expression of nestin compared to the culture without addition of the peptide: anti-nestin antibody, FIG. 4
Experimental: (§2) Among the synthetic peptides obtained in Example 1, samples 1 to 3 were evaluated for nestin expression inducing activity by western blot analysis using an anti-nestin antibody. Cells used for the test were cultured cells of astrocytes derived from rat cerebral cortex (R-CxAs-520: available from Lonza). A comparative example was carried out without addition of the peptide. The evaluation test is detailed as follows.
In the same manner as in Example 4, the astrocytes derived from rat cerebral cortex were incubated in the presence of the peptide at a peptide concentration of 5 μM for 2 days. After the incubation was completed, total protein was extracted from cultured cells from each experimental sample in the same manner as in Example 3.
SDS-PAGE and western blot analysis were then carried out in the same manner as in Example 3 to examine expression of nestin and GFAP in each experimental sample. An internal standard used in the series of procedures was the GAPDH protein.
Lanes 1, 2, 3 and 4 are the results without addition of the peptide, with addition of sample 2, with addition of sample 3 and with addition of sample 1, respectively.

[3] = test system: astrocytes derived from rat brain hippocampus (R-HiAs-521); test: Nestin expression inducing activity, nestin gene expression by qRT-PCR, astrocytes derived from the hippocampus; settings: corrected with Actin β, peptide 5 μM, 2 days, FIG. 1
Experimental: as §1, with “hippocampus (R-HiAs-521:” for “cerebral cortex (R-CxAs-520:”
The astrocytes derived from rat brain hippocampus were inoculated into a 6-well cell culture plate at a density of 1.0×10^5 cells/well. […]
After the incubation was completed, cultured cells from each experimental sample were washed with Cold PBS (−), and total RNA was extracted and purified using a commercially available RNA extraction and purification kit (NUCLEOSPIN™ RNA/Protein kit: available from Macherey Nagel). […] The purified RNA was quantified using Agilent 2100 Bioanalyzer (available from Agilent Technologies).
The purified RNA was subjected to qRT-PCR to examine the expression level of the nestin gene. […] RT-PCR employed the two-step RT-PCR method and quantitative PCR employed the TAQMAN® method. […]
The cDNA obtained in RT-PCR was then used as a template for quantitative PCR. […] Quantitative PCR reaction was carried out under the conditions of incubation at 95° C. for 10 seconds followed by 45 cycles of 95° C. for 15 seconds, 62° C. for 20 seconds and 72° C. for 20 seconds. […]

[4] = test system: astrocytes derived from rat brain hippocampus (R-HiAs-521); test: Nestin expression inducing activity, western blot analysis of nestin and GFAP, astrocytes derived from the hippocampus; settings: peptide 5 μM, 3 days
Experimental: as §2, with “sample” for “samples”, “(i.e. the nestin-inducing synthetic peptide of the present invention) was” for “to 3 were”, “brain hippocampus (R-HiAs-521:” for “cerebral cortex (R-CxAs-520:”
In the same manner as in Example 2, the astrocytes derived from rat brain hippocampus were incubated in the presence of the peptide at a peptide concentration of 5 μM for 3 days. After the incubation was completed, cultured cells from each experimental sample were washed with Cold PBS (−), and total protein was extracted using a commercially available protein extraction and purification kit (NucleoSpin™ RNA/Protein kit: available from Macherey Nagel). All procedures were carried out in the absence of proteases according to the instruction attached to the kit. The concentration of the extracted protein was quantified using RC DC Protein assay (available from BIO RAD).
According to the SDS (sodium dodecyl sulphate)-polyacrylamide electrophoresis (SDS-PAGE) and western blot analysis as described below, expression of nestin and GFAP in each experimental sample was examined. An internal standard used in the series of procedures was the GAPDH protein.
Specifically, proteins obtained from each experimental sample and a molecular weight marker (MagicMark™ XP Western Protein Standard: available from Life Technologies) were injected to a well of an SDS-polyacrylamide gel (precast gel for electrophoresis: available from Oriental Instruments Co., Ltd.) and SDS-PAGE was carried out. Electrophoresis of nestin was carried out on a 7.5% SDS-polyacrylamide gel and electrophoresis of GFAP and the GAPDH protein was carried out on a 5-20% SDS-polyacrylamide gel.
The proteins separated by SDS-PAGE were transferred (blotting) onto a PVDF (polyvinylidene difluoride) membrane which was then blocked in Perfect-Block (available from MoBiTec) diluted to 5% in PBS (−) containing Tween 20™ (hereinafter referred to as PBST (−)).
Nestin, GFAP and the GAPDH protein were detected with primary antibodies, an anti-nestin antibody (murine, available from Merck Millipore), an anti-GFAP antibody (murine, available from Progen Biotechnik) and an anti-GAPDH antibody (murine, available from Merck Millipore) diluted 500-, 5000- and 10000-fold, respectively, in PBST (−) by the reaction for 1 hour at room temperature. […]
Target proteins were then detected by reaction with the ECL prime Western blotting detection reagent (available from GE Healthcare) using the Luminescent image analyser LAS-3000 (available from Fujifilm Corporation). […]

| Sequence | expression of the nestin gene compared to the culture without addition of the peptide [1] | expression of GFAP compared to the culture without addition of the peptide [2] | expression of nestin compared to the culture without addition of the peptide [2] | co-expression of GFAP and nestin [2] | expression of nestin, times higher than the culture without addition of the peptide [2] | expression of the nestin gene compared to the culture without addition of the peptide [3] | expression of GFAP compared to the culture without addition of the peptide ([4]; anti-GFAP antibody) | expression of nestin compared to the culture without addition of the peptide ([4]; anti-nestin antibody, FIG. 2) | co-expression of GFAP and nestin [4] | expression of nestin, times higher than the culture without addition of the peptide [4] |
| --- | --- | --- | --- | --- | --- | --- | --- | --- | --- | --- |
| SLQYLCRFVIRQYTRKKRTLRKNDRKKR (SLQYLCRFVIRQYTRKKRTLRKNDRKKR-NH2) [sample 1] | significant increase | difference in expression of GFAP was not confirmed | significant increase | co-expressed | ≥ 2 times | significant increase | difference in expression of GFAP was not confirmed | significant increase | co-expressed | ≥ 2 times |
| NLQDLCRIKIRQCIGKKRTLRKNDRKKR (NLQDLCRIKIRQCIGKKRTLRKNDRKKR-NH2; cysteine pairing not given here) [sample 2, reference compound] |  | difference in expression of nestin or GFAP was not confirmed | difference in expression of nestin or GFAP was not confirmed |  |  |  |  |  |  |  |
| TLHQQCIRVLKNNIDKKRTLRKNDRKKR (TLHQQCIRVLKNNIDKKRTLRKNDRKKR-NH2) [sample 3, reference compound] |  | difference in expression of nestin or GFAP was not confirmed | difference in expression of nestin or GFAP was not confirmed |  |  |  |  |  |  |  |
